Experimental data as given in patent publication US7045528B2, “Benzofused heterozryl amide derivatives of thienopyridines useful as therapeutic agents, pharmaceutical compositions including the same, and methods for their use” (Agouron Pharmaceuticals, Inc., priority 2002, dated 2006).

Columns and labels:
PDGFRβ = target: T1, PDGFRβ (Homo sapiens, UniProt P09619); assay: PAE-PDGFRβ phosphorylation in PAE-PDGFRB cells assay; type: cell-based; settings: PAE cells overexpressing human PDGFRβ, PDGF-BB stimulated; read-out: PAE PDGFR autophos IC50 (nM) AVG
T1 construct: expressed in transfected cells; host or cells: porcine aorta endothelial (PAE)-PDGFRβ cells
Summary of the method: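 PAE cells overexpressing human PDGFRβ, serum-starved 16 h (0.1% FBS), were given compound for 1 h at 37 °C (0.5% DMSO) and then stimulated with 1 μg/mL PDGF-BB plus 2 mM Na3VO4 for 8 min. Receptor autophosphorylation was read by capture ELISA (HRP-PY20, TMB, 450 nm); IC50 from 4-parameter fit.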

Mouse PK assay = type: in vivo; settings: 50 mg/kg, B6 female mice, plasma; for AUC / Cmax: mouse, po
Description: The pharmacokinetics (e.g., absorption and elimination) of drugs in mice were analyzed using the following experiment. Test compounds were formulated as a suspension in a 30:70 (PEG 400:acidified H2O) vehicle. This solution was administered orally (p.o.) and intraperitoneally (i.p.) at 50 mg/kg to two distinct groups (n=4) of B6 female mice. Blood samples were collected via an orbital bleed at time points: 0 hour (pre-dose), 0.5 hr, 1.0 hr, 2.0 hr, and 4.0 hr post dose. Plasma was obtained from each sample by centrifugation at 2500 rpm for 5 min. Test compound was extracted from the plasma by an organic protein precipitation method. For each time bleed, 50 μL of plasma was combined with 1.0 mL of acetonitrile, vortexed for 2 min. and then spun at 4000 rpm for 15 min. to precipitate the protein and extract out the test compound. Next, the acetonitrile supernatant (the extract containing test compound) was poured into new test tubes and evaporated on a hot plate (25° C.) under a steam of N2 gas. To each tube containing the dried test compound extract, 125 μL of mobile phase (60:40, 0.025 M NH4H2PO4+2.5 mL/L TEA:acetonitrile) was added. The test compound was resuspended in the mobile phase by vortexing and more protein was removed by centrifugation at 4000 rpm for 5 min. Each sample was poured into an HPLC vial for test compound analysis on an Hewlett Packard 1100 series HPLC with UV detection. From each sample, 95 μL was injected onto a Phenomenex-Prodigy reverse phase C-18, 150×3.2 mm column and eluted with a 45–50% acetonitrile gradient run over 10 min. Test-compound plasma concentrations (μg/mL) were determined by a comparison to standard curve (peak area vs. conc. μg/mL) using known concentrations of test compound extracted from plasma samples in the manner described above. Along with the standards and unknowns, three groups (n=4) of quality controls (0.25 μg/mL, 1.5 μg/mL, and 7.5 μg/mL) were run to insure the consistency of the analysis. […] The quantitated test samples were plotted for visual display using Kalidagraph software and their pharmacokinetic parameters were determined using WIN NONLIN software.

T1 sequence (P09619 33-1106): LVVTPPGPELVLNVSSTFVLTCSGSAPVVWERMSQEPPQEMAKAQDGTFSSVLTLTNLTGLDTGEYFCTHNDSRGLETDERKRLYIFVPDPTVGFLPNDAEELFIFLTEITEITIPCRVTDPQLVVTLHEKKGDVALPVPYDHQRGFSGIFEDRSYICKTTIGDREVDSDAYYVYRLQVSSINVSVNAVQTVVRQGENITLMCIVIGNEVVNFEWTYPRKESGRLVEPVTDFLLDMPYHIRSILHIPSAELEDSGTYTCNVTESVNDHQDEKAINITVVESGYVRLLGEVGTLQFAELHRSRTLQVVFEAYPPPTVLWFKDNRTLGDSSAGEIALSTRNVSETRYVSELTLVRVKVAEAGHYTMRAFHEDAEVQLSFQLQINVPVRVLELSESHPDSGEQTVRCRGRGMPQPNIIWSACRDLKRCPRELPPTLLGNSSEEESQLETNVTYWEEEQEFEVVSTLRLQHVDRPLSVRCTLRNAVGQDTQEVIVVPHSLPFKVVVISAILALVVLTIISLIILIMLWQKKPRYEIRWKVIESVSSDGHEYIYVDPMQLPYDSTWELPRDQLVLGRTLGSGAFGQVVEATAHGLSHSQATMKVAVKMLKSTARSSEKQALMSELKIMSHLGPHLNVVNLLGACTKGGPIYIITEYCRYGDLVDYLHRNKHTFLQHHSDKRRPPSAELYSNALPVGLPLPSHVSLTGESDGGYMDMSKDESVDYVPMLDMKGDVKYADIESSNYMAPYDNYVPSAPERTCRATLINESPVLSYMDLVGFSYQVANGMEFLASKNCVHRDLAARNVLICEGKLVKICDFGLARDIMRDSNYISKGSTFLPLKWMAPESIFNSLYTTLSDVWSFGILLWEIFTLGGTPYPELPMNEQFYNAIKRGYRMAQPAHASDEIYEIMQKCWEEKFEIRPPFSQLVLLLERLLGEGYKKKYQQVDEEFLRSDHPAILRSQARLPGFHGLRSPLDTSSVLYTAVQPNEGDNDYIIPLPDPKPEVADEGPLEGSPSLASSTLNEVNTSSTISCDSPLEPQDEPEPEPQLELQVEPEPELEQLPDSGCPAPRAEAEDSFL

Row | IC50 (PDGFRβ) [nM] | mouse Cmin, po (Mouse PK assay) [ng/mL] | AUC (Mouse PK assay) [ng·h/mL] | Cmax (Mouse PK assay) [ng/mL] | Compound
1 | 14.4 | 270 | 12000 | 5420 | CNC(=O)c1c(C)oc2cc(Oc3ccnc4cc(C(=O)N5CC[C@@H](OC)C5)sc34)ccc12 [Example 12, 6-(2-[3-methoxypyrrolidine-1-carbonyl]thieno[3,2-b]pyridin-7-yloxy)-2-methylbenzofuran-3-carboxylic acid methylamide]
2 | 18.7 |  |  |  | CCCCNC(=O)c1c(C)n(C)c2cc(Oc3ccnc4cc(-c5nccs5)sc34)ccc12 [Example 62, 1,2-Dimethyl-6-(2-thiazol-2-yl-thieno[3,2-b]pyridin-7-yloxy)-1H-indole-3-carboxylic acid butylamide]
3 | 756 | 66 | 2450 | 956 | CNC(=O)c1c(C)sc2cc(Oc3ccnc4cc(C(=O)N5CCC[C@H]5CO)sc34)ccc12 [Example 3]
4 | 41 | 1700 | 63000 | 24800 | CNC(=O)c1c(C)oc2cc(Oc3ccnc4cc(-c5nccn5C)sc34)ccc12 [Example 13]
5 | 164 | 2793 | 183000 | 125000 | CNC(=O)c1c(C)sc2cc(Oc3ccnc4cc(-c5nccn5C)sc34)ccc12 [Example 1, 2-methyl-6-(2-[1-methyl-1H-imidazol-2-yl]thieno[3,2-b]pyridin-7-yloxy)benzo[b]thiophene-3-carboxylic acid methylamide]
6 | 255 | 20 | 586 | 355 | CNC(=O)c1c(C)sc2cc(Oc3ccnc4cc(C(=O)N5CC[C@@H](O)C5)sc34)ccc12 [Example 6, 6-(2-[(R)-3-hydroxypyrrolidine-1-carbonyl]thieno[3,2-b]pyridin-7-yloxy)-2-methylbenzo[b]thiophene-3-carboxylic acid methylamide]
7 | 284 | 200 | 7670 | 2340 | CNC(=O)c1c(C)sc2cc(Oc3ccnc4cc(C(=O)N5CC[C@@H](OC)C5)sc34)ccc12 [Example 4, 6-(2-[(R)-3-methoxypyrrolidine-1-carbonyl]thieno[3,2-b]pyridin-7-yloxy)-2-methylbenzo[b]thiophene-3-carboxylic acid methylamide]
8 | 32 | 342 | 8720 | 4120 | CNC(=O)c1c(C)n(C)c2cc(Oc3ccnc4cc(C(=O)N5CC[C@@H](OC)C5)sc34)ccc12 [Example 18, 1,2-dimethyl-6-(2-[3-methoxy-pyrrolidine-1-carbonyl]thieno[3,2-b]pyridin-7-yloxy)-1H-indole-3-carboxylic acid methylamide]
9 | 43 |  |  |  | Cc1c(C(=O)NC2CC2)c2ccc(Oc3ccnc4cc(-c5nccn5C)sc34)cc2n1C [Example 20, 1,2-Dimethyl-6-[2-(1-methyl-1H-imidazol-2-yl)-thieno[3,2-b]pyridin-7-yloxy]-1H-indole-3-carboxylic acid cyclopropylamide]
10 | 912 |  |  |  | CNC(=O)c1c(C)sc2cc(Oc3ccnc4cc(C(=O)N5CCC[C@H]5COC)sc34)ccc12 [Example 2, 6-(2-[(S)-2-(methoxymethyl)pyrrolidine-1-carbonyl]thieno[3,2-b]pyridin-7-yloxy)-2-methylbenzo[b]thiophene-3-carboxylic acid methylamide]
11 | 20 | 2334 | 71600 | 28800 | CNC(=O)c1c(C)n(C)c2cc(Oc3ccnc4cc(-c5nccn5C)sc34)ccc12 [Example 17, 1,2-dimethyl-6-(2-[1-methyl-1H-imidazol-2-yl]thieno[3,2-b]pyridin-7-yloxy)-1H-indole-3-carboxylic acid methylamide]
12 | 172 | 4 | 120 | 51 | CNC(=O)c1c(C)n(C)c2cc(Oc3ccnc4cc(C(=O)N5CC[C@@H](O)C5)sc34)ccc12 [Example 19, 1,2-dimethyl-6-(2-[3-hydroxy-pyrrolidine-1-carbonyl]thieno[3,2-b]pyridin-7-yloxy)-1H-indole-3-carboxylic acid methylamide]
13 | 17.8 |  |  |  | CCCNC(=O)c1c(C)n(C)c2cc(Oc3ccnc4cc(-c5nccn5C)sc34)ccc12 [Example 61, 1,2-Dimethyl-6-[2-(1-methyl-1H-imidazol-2-yl)thieno[3,2-b]pyridin-7-yloxy]-1H-indole-3-carboxylic acid propylamide]
